The source of these data is patent publication US10357493B2, “Metalloenzyme inhibitor compounds” (Selenity Therapeutics (Bermuda), Ltd., priority 2017, dated 2019).

The target of test [1] is HDAC6 (Homo sapiens (Human), UniProt Q9UBN7). The test can be described thus: HDAC6 enzymatic assay. It counts as biochemical. The note with it: read-out: Human HDAC6 IC50. The procedure:
(§1) All enzymatic reactions were conducted in duplicate at room temperature for 17 hours in a 50 μl mixture containing HDAC assay buffer (50 mM Tris-HCl, pH 7.4, 137 mM NaCl, 2.7 mM KCl, 0.05% Tween 20, 5 μg BSA), an HDAC substrate, an HDAC enzyme, and a test compound. Compound dilution was prepared ten-fold higher than the final concentration of the compounds with 10% DMSO in HDAC assay buffer and 5 μl of the dilution was added to a 50 μl reaction so that the final concentration of DMSO is 1% in all of reactions. After enzymatic reactions, 50 μl of HDAC Developer was added to each well and the plate was incubated at room temperature for an additional 20 minutes. Fluorescence intensity was measured at an excitation of 360 nm and an emission of 460 nm using a Tecan Infinite M1000 or Biotek Synergy microplate reader.
(§2) The fluorescent intensity data were analyzed using the computer software, Graphpad Prism. In the absence of the compound, the fluorescent intensity (Ft) in each data set was defined as 100% activity. In the absence of HDAC, the fluorescent intensity (Fb) in each data set was defined as 0% activity. The percent activity in the presence of each compound was calculated according to the following equation: % activity=(F−Fb)/(Ft−Fb), where F=the fluorescent intensity in the presence of the compound.
(§3) The values of % activity versus a series of compound concentrations were then plotted using non-linear regression analysis of Sigmoidal dose-response curve generated with the equation Y=B+(T−B)/1+10((Log EC50−X)×Hill Slope), where Y=percent activity, B=minimum percent activity, T=maximum percent activity, X=logarithm of compound and Hill Slope=slope factor or Hill coefficient. The IC50 value was determined by the concentration causing a half-maximal percent activity.
(§4) HDAC1 enzymatic assays contained 0.5 ng HDAC1 and 10 uM of HDAC substrate. HDAC2 enzymatic assays contained 0.5 ng HDAC2 and 10 uM of HDAC substrate. HDAC3 enzymatic assays contained 0.4 ng HDAC3/NCOR2 and 10 uM of HDAC substrate. HDAC4 enzymatic assays contained 0.02 ng HDAC4 and 2 uM of HDAC substrate. HDAC5 enzymatic assays contained 0.5 ng HDAC5 and 2 uM of HDAC substrate. HDAC6 enzymatic assays contained 2 ng HDAC6 and 10 uM of HDAC substrate. HDAC7 enzymatic assays contained 0.05 ng HDAC7 and 2 uM of HDAC substrate. HDAC8 enzymatic assays contained 5 ng HDAC8 and 2 uM of HDAC substrate. HDAC9 enzymatic assays contained 1 ng HDAC9 and 2 uM of HDAC substrate. HDAC10 enzymatic assays contained 75 ng HDAC10 and 10 uM of HDAC substrate. HDAC11 enzymatic assays contained 5 ng HDAC11 and 2 uM of HDAC substrate.

The target in test [2] is HDAC1 (Homo sapiens (Human), UniProt Q13547). Kind of test: HDAC1 enzymatic assay. It counts as biochemical. The note with it: read-out: Human HDAC1 IC50. The procedure: as §1, §2, §3, §4
Chain of HDAC1 (Q13547 whole entry): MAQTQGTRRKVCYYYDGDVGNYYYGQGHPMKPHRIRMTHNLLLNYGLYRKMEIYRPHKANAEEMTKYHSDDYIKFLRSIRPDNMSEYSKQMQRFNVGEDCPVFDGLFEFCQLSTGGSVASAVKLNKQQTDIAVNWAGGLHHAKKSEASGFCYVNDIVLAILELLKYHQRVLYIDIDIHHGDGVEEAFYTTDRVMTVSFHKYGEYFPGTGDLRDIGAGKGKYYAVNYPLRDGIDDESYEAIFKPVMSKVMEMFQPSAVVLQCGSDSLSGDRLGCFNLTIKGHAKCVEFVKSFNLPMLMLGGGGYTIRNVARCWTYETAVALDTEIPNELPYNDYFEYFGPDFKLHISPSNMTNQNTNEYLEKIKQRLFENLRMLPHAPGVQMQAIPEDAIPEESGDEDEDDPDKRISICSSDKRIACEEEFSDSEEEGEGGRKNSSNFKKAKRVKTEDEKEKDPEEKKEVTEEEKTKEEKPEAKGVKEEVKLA

As a reminder, the IC50 is the midpoint of a concentration-inhibition curve.

Chain of HDAC6 (Q9UBN7 whole entry): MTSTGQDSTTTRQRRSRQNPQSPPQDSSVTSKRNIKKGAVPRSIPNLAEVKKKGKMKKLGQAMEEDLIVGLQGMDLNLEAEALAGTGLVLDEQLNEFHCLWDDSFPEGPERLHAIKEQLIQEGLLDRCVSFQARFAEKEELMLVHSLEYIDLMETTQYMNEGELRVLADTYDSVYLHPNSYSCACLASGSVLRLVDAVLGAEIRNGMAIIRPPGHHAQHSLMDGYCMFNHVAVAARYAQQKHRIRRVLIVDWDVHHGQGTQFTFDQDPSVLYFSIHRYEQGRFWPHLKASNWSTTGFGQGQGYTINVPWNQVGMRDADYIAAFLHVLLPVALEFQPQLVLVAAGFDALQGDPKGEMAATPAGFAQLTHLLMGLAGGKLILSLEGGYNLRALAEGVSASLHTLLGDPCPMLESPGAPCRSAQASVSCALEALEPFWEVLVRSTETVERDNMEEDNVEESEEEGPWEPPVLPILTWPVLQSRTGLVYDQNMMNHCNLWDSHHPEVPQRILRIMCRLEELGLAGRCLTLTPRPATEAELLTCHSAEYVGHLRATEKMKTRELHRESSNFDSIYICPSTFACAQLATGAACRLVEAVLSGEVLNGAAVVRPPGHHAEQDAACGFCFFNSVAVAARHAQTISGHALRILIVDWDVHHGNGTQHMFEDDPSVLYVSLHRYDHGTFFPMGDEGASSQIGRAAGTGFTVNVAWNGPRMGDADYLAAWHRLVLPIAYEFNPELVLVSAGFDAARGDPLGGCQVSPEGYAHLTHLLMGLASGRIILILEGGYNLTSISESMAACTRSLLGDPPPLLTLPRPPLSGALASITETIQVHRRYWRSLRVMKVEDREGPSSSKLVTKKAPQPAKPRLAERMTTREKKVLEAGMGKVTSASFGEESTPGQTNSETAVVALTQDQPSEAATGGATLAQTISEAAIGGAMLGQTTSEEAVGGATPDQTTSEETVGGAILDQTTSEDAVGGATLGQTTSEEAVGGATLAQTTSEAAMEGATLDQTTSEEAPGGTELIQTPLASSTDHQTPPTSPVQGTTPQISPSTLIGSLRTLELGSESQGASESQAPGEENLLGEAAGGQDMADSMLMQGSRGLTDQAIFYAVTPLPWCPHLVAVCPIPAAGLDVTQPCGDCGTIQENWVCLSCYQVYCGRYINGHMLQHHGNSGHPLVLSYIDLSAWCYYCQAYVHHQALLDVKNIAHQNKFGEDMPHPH

On to `CC(=O)NCC(Nc1ncc(-c2nnc(C(F)F)o2)cn1)c1ccc(F)cc1` (racemic) [Example 78, N-(2-((5-(5-(difluoromethyl)-1,3,4-oxadiazol-2-yl)pyrimidin-2-yl)amino)-2-(4-fluorophenyl)ethyl)acetamide], for which the half-maximal inhibitory concentration (IC50) in test [1] was 47 nM; in test [2], over 30000 nM.

In the case of `CS(=O)(=O)NCC(Nc1ncc(-c2nnc(C(F)F)o2)cn1)c1ccc(F)cc1` (single isomer, unassigned) [38(−), N-(2-((5-(5-(difluoromethyl)-1,3,4-oxadiazol-2-yl)pyrimidin-2-yl)amino)-2-(4-fluorophenyl)ethyl) methanesulfonamide], the results for the IC50 in test [1] and in test [2] were 320 nM and over 30000 nM, respectively.

For `CC(=O)NCC(Nc1ncc(-c2nnc(C(F)F)o2)cn1)c1ccc(F)cc1` (single isomer, unassigned) [78(+), N-(2-((5-(5-(difluoromethyl)-1,3,4-oxadiazol-2-yl)pyrimidin-2-yl)amino)-2-(4-fluorophenyl)ethyl)acetamide], the IC50 in test [1] was 48 nM; in test [2], over 30000 nM.

Regarding `CC(=O)NCC(Nc1ncc(-c2nnc(C(F)F)o2)cn1)c1ccc(F)cc1` (single isomer, unassigned) [78(−), N-(2-((5-(5-(difluoromethyl)-1,3,4-oxadiazol-2-yl)pyrimidin-2-yl)amino)-2-(4-fluorophenyl)ethyl)acetamide], the IC50 in test [1] is 420 nM; in test [2], over 30000 nM.

As to `Fc1ccc(C(CC(F)(F)F)Nc2ncc(-c3nnc(C(F)F)o3)cn2)c(F)c1` (single isomer, unassigned) [101(+)], the figures for the 50% inhibitory concentration (IC50) in test [1] and in test [2] were 22 nM and over 30000 nM, respectively.

On to `Fc1ccc(C(CC(F)(F)F)Nc2ncc(-c3nnc(C(F)F)o3)cn2)c(F)c1` (single isomer, unassigned) [101(−)], for which the IC50 in test [1] is 710 nM; in test [2], over 30000 nM.

Regarding `CS(=O)(=O)NCC(Nc1ncc(-c2nnc(C(F)F)o2)cn1)c1ccc(F)cc1F` (single isomer, unassigned) [103(−), N-(2-((5-(5-(difluoromethyl)-1,3,4-oxadiazol-2-yl)pyrimidin-2-yl)amino)-2-(2,4-difluorophenyl)ethyl)methanesulfonamide], the IC50 was 650 nM in test [1] and over 30000 nM in test [2].

Turning to `CS(=O)(=O)NCC(Nc1ncc(-c2nnc(C(F)F)o2)cn1)c1ccc(OC(F)F)cc1` (single isomer, unassigned) [115(−), N-(2-(4-(difluoromethoxy)phenyl)-2-((5-(5-(difluoromethyl)-1,3,4-oxadiazol-2-yl)pyrimidin-2-yl)amino)ethyl)methanesulfonamide], the IC50 in test [1] was 370 nM; in test [2], over 30000 nM.

For the compound `CS(=O)(=O)NCC(Nc1ncc(-c2nnc(C(F)F)o2)cn1)c1ccc(OC(F)F)cc1F` (single isomer, unassigned) [116(−), N-(2-(4-(difluoromethoxy)-2-fluorophenyl)-2-((5-(5-(difluoromethyl)-1,3,4-oxadiazol-2-yl)pyrimidin-2-yl)amino)ethyl)methanesulfonamide], the concentration for half-maximal inhibition (IC50) is 260 nM in test [1] and over 30000 nM in test [2].

For `CS(=O)(=O)NCC(Nc1ncc(-c2nnc(C(F)F)o2)cn1)c1ccc(OC(F)(F)F)cc1` (single isomer, unassigned) [122(−), N-(2-((5-(5-(difluoromethyl)-1,3,4-oxadiazol-2-yl)pyrimidin-2-yl)amino)-2-(4-(trifluoromethoxy)phenyl)ethyl)methanesulfonamide], the IC50 in test [1] is 840 nM; in test [2], over 30000 nM.

On to `CS(=O)(=O)NCC(Nc1ncc(-c2nnc(C(F)F)o2)cn1)C1CC1` (single isomer, unassigned) [123(+), N-(2-cyclopropyl-2-((5-(5-(difluoromethyl)-1,3,4-oxadiazol-2-yl)pyrimidin-2-yl)amino)ethyl)methanesulfonamide], for which the half-maximal inhibitory concentration (IC50) in test [1] was 1100 nM; in test [2] it was over 30000 nM.

Turning to `CS(=O)(=O)NCC(Nc1ncc(-c2nnc(C(F)F)o2)cn1)C1CC1` (single isomer, unassigned) [123(−), N-(2-cyclopropyl-2-((5-(5-(difluoromethyl)-1,3,4-oxadiazol-2-yl)pyrimidin-2-yl)amino)ethyl)methanesulfonamide], the IC50 in test [1] is 1100 nM; in test [2], over 30000 nM.

`CN(CC(Nc1ncc(-c2nnc(C(F)F)o2)cn1)c1ccc(F)cc1F)S(C)(=O)=O` (single isomer, unassigned) [137(+), N-(2-((5-(5-(difluoromethyl)-1,3,4-oxadiazol-2-yl)pyrimidin-2-yl)amino)-2-(2,4-difluorophenyl)ethyl)-N-methylmethanesulfonamide]: the figures for the IC50 in test [1] and in test [2] were 41 nM and over 30000 nM, respectively.

Take `CCS(=O)(=O)NCC(Nc1ncc(-c2nnc(C(F)F)o2)cn1)c1ccc(F)cc1F` (single isomer, unassigned) [139(+), N-(2-((5-(5-(difluoromethyl)-1,3,4-oxadiazol-2-yl)pyrimidin-2-yl)amino)-2-(2,4-difluorophenyl)ethyl)ethanesulfonamide]: the values for the IC50 in test [1] and in test [2] were 33 nM and over 30000 nM, respectively.

With `CS(=O)(=O)CC(Nc1ncc(-c2nnc(C(F)F)o2)cn1)c1ccc(F)cc1` (single isomer, unassigned) [161(−), 5-(5-(difluoromethyl)-1,3,4-oxadiazol-2-yl)-N-(1-(4-fluorophenyl)-2-(methylsulfonyl)ethyl)pyrimidin-2-amine], the IC50 in test [1] was 870 nM; in test [2], over 30000 nM.

In the case of `Fc1ccc(C(COCC(F)(F)F)Nc2ncc(-c3nnc(C(F)F)o3)cn2)cc1` (single isomer, unassigned) [162(+), 5-(5-(difluoromethyl)-1,3,4-oxadiazol-2-yl)-N-(1-(4-fluorophenyl)-2-(2,2,2-trifluoroethoxy)ethyl)pyrimidin-2-amine], the IC50 in test [1] is 130 nM; in test [2] it was over 30000 nM.

For the compound `Fc1ccc(C(COCC(F)(F)F)Nc2ncc(-c3nnc(C(F)F)o3)cn2)cc1` (single isomer, unassigned) [162(−), 5-(5-(difluoromethyl)-1,3,4-oxadiazol-2-yl)-N-(1-(4-fluorophenyl)-2-(2,2,2-trifluoroethoxy)ethyl)pyrimidin-2-amine], the IC50 in test [1] is 300 nM; in test [2], over 30000 nM.

With `Fc1ccc(C(COCC(F)(F)F)Nc2ncc(-c3nnc(C(F)F)o3)cn2)c(F)c1` (single isomer, unassigned) [163(+), 5-(5-(difluoromethyl)-1,3,4-oxadiazol-2-yl)-N-(1-(2,4-difluorophenyl)-2-(2,2,2-trifluoroethoxy)ethyl)pyrimidin-2-amine], the results for the IC50 in test [1] and in test [2] were 110 nM and over 30000 nM, respectively.

For the compound `Fc1ccc(C(COCC(F)(F)F)Nc2ncc(-c3nnc(C(F)F)o3)cn2)c(F)c1` (single isomer, unassigned) [163(−), 5-(5-(difluoromethyl)-1,3,4-oxadiazol-2-yl)-N-(1-(2,4-difluorophenyl)-2-(2,2,2-trifluoroethoxy)ethyl)pyrimidin-2-amine], the IC50 in test [1] was 410 nM; in test [2], over 30000 nM.

On to `Fc1ccc(C(COC2CC2)Nc2ncc(-c3nnc(C(F)F)o3)cn2)c(F)c1` (single isomer, unassigned) [Example 134B, N-(2-cyclopropoxy-1-(2,4-difluorophenyl)ethyl)-5-(5-(difluoromethyl)-1,3,4-oxadiazol-2-yl)pyrimidin-2-amine], for which the IC50 in test [1] came out at 61 nM.
